{"source": "patent US8071336B2", "about": "“Antibody-based therapeutics with enhanced ADCC activity” (Genzyme Corporation, priority 2005, dated 2011)", "key": {"[1]": {"test_system": "Hybridoma cells expressing TEM mAb A", "experiment": "N-glycans of TEM mAb A from inhibitor-treated hybridoma cells (MALDI-TOF MS)", "type": "cell-based", "details": "20 μg/ml mannostatin A, 0.5 mM NB-DNJ, or 2 μg/ml kifunensine at days 0 and 2", "method": "Hybridoma cells expressing TEM mAb A, an antibody against a tumor vascular associated antigen, were grown in medium containing 1% fetal bovine serum with low IgG (Invitrogen Corp.), 5 μg/ml bovine insulin, 5 μg/ml human transferrin, 0.01 mM ethanolamine and 25 nM sodium selenite. Cells were treated once with the following inhibitors: 20 μg/ml mannostatin A, and 0.5 mM NB-DNJ for 4 days; and twice with 2 μg/ml kifunensine at days 0 and 2; or cultured without inhibitors (“control”).\nN-linked glycans from antibodies purified as described in Example 1 were released with PNGase F. After filtration through 10 kDa filters, the filtrates were treated with Dowex AG-50 (H^+), AG501, and […] sequentially. Aliquots of samples were applied to a target, followed by sDHB matrix. The MALDI-TOF mass spectra were acquired using a Voyager-DE PRO Biospectrometry Workstation (Applied Biosystems, Foster City, Calif., USA) in the positive-ion and reflective mode."}, "[2]": {"test_system": "CHO cell clone expressing TEM mAb A", "experiment": "Titration of kifunensine concentration, N-glycans of TEM mAb A (MALDI-TOF MS)", "type": "cell-based, Chinese hamster", "details": "for glycan structures of the expressed antibody: 11 days", "method": "To investigate the impact of mixed oligomannose and complex-type glycans on antibody function, cells expressing TEM mAb A were treated with various amounts of kifunensine. In the first experiment, a CHO cell clone expressing TEM mAb A was treated with 0, 4, 20, 100, 500 and 2500 ng/ml of kifunensine for 11 days. The medium was harvested, and the antibody was purified using a protein A column. Fractions containing protein peaks were pooled and dialyzed into PBS. A second titration experiment was performed with a narrower range of kifunensine concentration, specifically, from 20 to 100 ng/ml. After treatment for 11 days, 50 ml of medium from each treatment condition was harvested, and the antibody was purified. Peak-containing fractions were pooled, buffer-exchanged into PBS using Centricon® filters with repeated centrifugation. Aliquots of TEM mAb A antibody samples were applied to a 4-12% NuPAGE and stained with Coomassie blue to confirm purity. The amount of fucosylated and non-fucosylated glycans in antibodies from each kifunensine treatment in the second titration experiment was estimated by calculating the area of each individual glycan peak in MALDI-TOF MS spectra."}, "[3]": {"test_system": "CHO cells expressing TEM mAb B", "experiment": "Batch cultures of CHO cells expressing TEM mAb B treated with kifunensine (shaker flasks)", "type": "cell-based, Chinese hamster", "method": "The production of TEM mAb B from batch cultures treated with various amounts of kifunensine or untreated was evaluated. CHO cells in shaker flasks were treated with 0, 0.5, 1, 1.5, or 2 μg/ml in a single or three additions (4 days apart) and cultured for 11 days. Cell viability (using trypan blue) and cell counts were assessed at least every other day."}, "[4]": {"details": "after removal of most of the galactose residues; cited from earlier work"}, "[5]": {"details": "after removal of most of the galactose residues; cited from earlier work", "remark": "listed apart in the source"}}}
{"compound": "CS[C@@H]1[C@@H](N)[C@@H](O)[C@@H](O)[C@H]1O", "note": "[mannostatin A]", "values": [{"measurement": "effect on glycosylation of the expressed antibody", "setting": "[1]", "result": "No alteration in glycosylation"}]}
{"compound": "CCCCN1C[C@H](O)[C@@H](O)[C@H](O)[C@H]1CO", "note": "[NB-DNJ, N-butyl-DNJ]", "values": [{"measurement": "effect on glycosylation of the expressed antibody", "setting": "[1]", "result": "significant amounts of Glc1Man9GlcGNAc2 (Man9Glc)"}]}
{"compound": "O=C1N[C@@H]2[C@@H](O)[C@@H](O)[C@H](O)[C@@H](CO)N2C1=O", "note": "[kifunensine]", "values": [{"measurement": "glycan structures of the expressed antibody", "setting": "[2]; 20 ng/ml kifunensine", "result": "only a small amount of oligomannose structures (Man5/Man6)"}, {"measurement": "non-fucosylated glycans of the expressed antibody", "setting": "[2]; 60 ng/ml or higher kifunensine, estimated from MALDI-TOF MS peak areas", "result": "> 80", "unit": "%"}, {"measurement": "glycan structures of the expressed antibody", "setting": "[2]; 100 ng/ml kifunensine", "result": "complete oligomannose structures"}, {"measurement": "effect on glycosylation of the expressed antibody", "setting": "[1]", "result": "more effective in blocking the glycosylation to complex-type structures than NB-DNJ"}, {"measurement": "Xvmax (viable cells at day of peak cell density)", "setting": "[3]; 0.5 μg/ml kif sup. 3x (three additions), 11 days", "result": "3.5 ×10^6 cells"}, {"measurement": "Xvmax (viable cells at day of peak cell density)", "setting": "[3]; 0.5 μg/ml kif, single addition, 11 days", "result": "3.5 ×10^6 cells"}, {"measurement": "Xvmax (viable cells at day of peak cell density)", "setting": "[3]; 1 μg/ml kif sup. 3x (three additions), 11 days", "result": "1.6 ×10^6 cells"}, {"measurement": "Xvmax (viable cells at day of peak cell density)", "setting": "[3]; 1 μg/ml kif, single addition, 11 days", "result": "2.7 ×10^6 cells"}, {"measurement": "Xvmax (viable cells at day of peak cell density)", "setting": "[3]; 1.5 μg/ml kif sup. 3x (three additions), 11 days", "result": "1.6 ×10^6 cells"}, {"measurement": "Xvmax (viable cells at day of peak cell density)", "setting": "[3]; 1.5 μg/ml kif, single addition, 11 days", "result": "3.8 ×10^6 cells"}, {"measurement": "Xvmax (viable cells at day of peak cell density)", "setting": "[3]; 2 μg/ml kif sup. 3x (three additions), 11 days", "result": "1.7 ×10^6 cells"}, {"measurement": "Xvmax (viable cells at day of peak cell density)", "setting": "[3]; 2 μg/ml kif, single addition, 11 days", "result": "2.1 ×10^6 cells"}, {"measurement": "cell viability (trypan blue)", "setting": "[3]; FIG. 10A, 0 to 2 μg/ml kifunensine, 1 or 3 additions, 11 days", "result": "comparable"}, {"measurement": "cell density", "setting": "[3]; FIG. 10B, kifunensine-treated vs untreated cells", "result": "lower"}, {"measurement": "glycan structures of the expressed antibody", "setting": "[3]; single kifunensine treatment at 0.5 μg/ml", "result": "enough to result in the production of oligomannose-type structures"}, {"measurement": "cell density", "setting": "[3]; three additions of kifunensine vs untreated control or single treatment", "result": "much lower cell density"}]}
{"compound": "Campath®: a humanized mAb IgG1", "values": [{"measurement": "complement lysis activity", "setting": "[4]", "result": "reduced complement lysis activity"}, {"measurement": "ADCC", "setting": "[5]", "result": "no effect on ADCC"}]}
